Experimental data published in patent US20110165611A1, “DUAL MODALITY DETECTION OF APOPTOSIS” (priority 2008, published 2011).
“Also recorded” adds a separate entry of the source.

What was measured:
[1] = Stability of 99mTc-chelate 4, ligand challenge with cysteine and histidine; format: physicochemical; settings: 0.01 M cysteine or histidine in PBS, 37° C., 1 and 5 h
Procedure: A large excess of competing donors cysteine and histidine was used as a means of evaluating the complex's tendency to undergo transchelation. […] The samples were incubated at 37° C. and analyzed by HPLC at 1- and 5-h intervals.

[2] = system: activated caspase 3 in liver; assay: Fluorescence microscopic analysis of liver from mice injected 99mTc-chelate 4; format: in vivo, mouse; settings: anti-Fas-treated vs PBS-treated liver, 2 h after i.v. injection
Procedure: The tissue slices were fixed using 4% paraformaldehyde for 15 min at room temperature. After PBS washing, the samples were blocked with 10% goat serum at 37° C. for 30 min, followed by 1 μg/mL of rabbit anti-mouse-activated caspase 3 monoclonal antibody (R&D Systems, Minneapolis, Minn.) at 4° C. overnight. Texas red-conjugated goat anti-rabbit IgG (1:1000, Invitrogen, Eugene, Oreg.) was used as second antibody at room temperature for 1 h. Cell nuclei were counterstained with 3 μg/mL of Hoechst 33342 at room temperature for 5 min. The slices were mounted and visualized under a Zeiss Axio Observer.Z1 fluorescence microscope (Carl Zeiss MicroImaging GmbH, Göttingen, Germany).

apoptotic liver = assay: Gamma imaging in murine liver apoptosis model (anti-Fas); format: in vivo, mouse; settings: 300 μCi i.v., imaging 120 min after injection
Excerpt: We used a murine liver apoptosis model to evaluate whether chelate 4 could be used to image apoptosis in vivo. F. G. Blankenberg, J. F. Tait, R. E. Davis, L. Naumovski, K. Ohtsuki, S. Kopiwoda, M. J. Abrams, M. Darkes, R. C. Robbins, H. T. Maecker, H. W. Strauss, Proc. Natl. Acad. Sciences USA 1998, 95, 6349-6354; F. G. Blankenberg, P. D. Katsikis, J. F. Tait, R. E. Davis, L. Naumovski, K. Ohtsuki, S. Kopiwoda, M. J. Abrams, H. W. Strauss, J. Nucl. Med. 1999, 40, 184-191. Male Balb/c mice (10-12 weeks old, weight 20-25 g) were injected intravenously with an anti-Fas monoclonal antibody (10 μg/mouse) to induce apoptosis in the liver. […] Radionuclide imaging was acquired 120 min after the injection of 4.
Gamma Imaging and Biodistribution For γ-imaging study, two male Balb/c mice (10-12 weeks old, weight 20-25 g) (Charles River, Wilmington, Mass.) were injected intravenously with a purified anti-Fas monoclonal antibody (10 μg/mouse) (Pharmingen, San Diego, Calif.). Two mice injected with PBS were used as a control group. […] The organs of interest were excised and weighed, and radioactivity was counted in a gamma counter. The stomach and intestines were emptied of food contents prior to radioactivity measurements. The percentage of injected dose per gram (% ID/g) was calculated by dividing the % ID/organ by the weight of the tissue.

DLD1 cells [3] = assay: Cellular uptake and efflux of 99mTc-chelate 4, radiotracer analysis; format: cell-based, human
Procedure: The medium was replaced with 2 mL of medium containing radiotracers 99 mTc-chelate 4 [Ac-DEVD-R110-D-SAAC-99mTc(CO)3] (˜40 μCi/mL) or its fragment R110-D-SAAC-99 mTc(CO)3 (˜40 μCi/mL). The cells were subsequently incubated for 60 and 120 min before the monolayers were scraped, transferred into 5-mL tubes. The tubes were briefly vortexed and 100 μL DLD1 cell suspension were transferred into a microcentrifuge tube containing 500 μL of a 75:25 mixture of silicon oil (density 1.05, Aldrich) and mineral oil (density 0.872, Acros). The mixture was centrifuged at 14,000 rpm for 5 min. After freezing the tubes with liquid nitrogen, the bottom tips containing the cell pellet were cut off. The cell pellets and the supernatants were counted with a γ-counter (Perkin-Elmer). The protein content in 100 μl cell suspension was quantified in a separate experiment using the Bio-Rad protein assay kit according to the manufacturer's protocol. For efflux study, cells were incubated with each radiotracer for 2 hrs, then the medium was removed and the cells washed with medium twice. The cells were incubated with 2 mL of fresh medium for additional 60 min, 120 min, and 180 min. The radioactivity in the cell pellets and media were counted as described before. Activity ratios of the cell pellet to medium ([cpm/g protein in pellet]/[cpm/g medium]) were calculated and plotted against time. The experiments were performed in pentaplicate.

[4] = Stability of DEVD profluorophore 2 in PBS and serum-containing culture medium; format: physicochemical; settings: 10 μM in PBS, 1 μM in medium, room temperature, 8 h
Procedure: Stability of DEVD profluorophore 2 in PBS and serum-containing culture medium For the stability assay, the generation of fluorescence was recorded continuously at room temperature for 8 h for a solution of 2 (10 μM) or fluorescein diacetate (10 μM) in 3 mL of PBS using a Fluorolog-3 fluorometer (Jobin Yvon, Edison, N.J.) at λex=496 nm. The procedure was repeated for a solution of 2 (1 μM) or fluorescein diacetate (1 μM) in Dulbecco's modified Eagle medium supplemented with 10% (v/v) fetal bovine serum. Cleavage of amide bond linking R110 to DEVD or hydrolysis of fluorescein diacetate would result in increased fluorescence signal.

Human caspase 3 = molecular target: T1, Human caspase 3 (Homo sapiens, UniProt P42574); assay: Cleavage by caspase 3 (fluorescence emission and LC-MS); format: biochemical
T1 construct: purchased Sigma-Aldrich
T1 sequence (P42574 29-175 limits assumed): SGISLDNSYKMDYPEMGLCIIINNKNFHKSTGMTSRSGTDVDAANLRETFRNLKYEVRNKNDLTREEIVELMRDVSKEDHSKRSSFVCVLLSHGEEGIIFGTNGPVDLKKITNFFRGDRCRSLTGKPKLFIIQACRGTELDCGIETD
T1 sequence (P42574 176-277 limits assumed): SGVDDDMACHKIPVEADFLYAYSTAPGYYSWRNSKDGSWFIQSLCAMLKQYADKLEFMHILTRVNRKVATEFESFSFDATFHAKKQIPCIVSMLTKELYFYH
Procedure: Cleavage by caspase 3 Human caspase 3 (Sigma-Aldrich) (5 μg) was reconstituted with 50 μL of deionized water (100 μg/mL) and stored in aliquots at −70° C. Before its use, an aliquot of reconstituted caspase 3 was thawed and diluted 200-fold in 1× assay buffer to a final concentration of 0.5 μg/mL. Five microliters of diluted caspase 3 was then added into a solution of 2 (22 μM) in 3 mL 1× assay buffer (20 mM HEPES [pH 7.4], with 2 mM ethylenediaminetetraacetic acid, 0.1% 3-[(3-cholamidopropyl)dimethylammonio]-1-propanesulfonate, and 5 mM dithiothreitol). The reaction mixture was incubated in cuvet in dark at room temperature and the emission spectra were recorded at intervals of 0, 10, 20, 30 and 60 min on a Fluorolog 3 fluorometer (HORIBA, Edison, N.J.) with an excitation wavelength (λex) of 496 nm.
To further confirm cleavage of 2 by caspase 3, 5 μL of caspase 3 (0.5 μg/mL) was mixed with 10 μL of 1 mM solution of 2 dissolved in 1× assay buffer. After 1 h at room temperature, the reaction mixture was injected into LC-MS system.

DLD1 cells [5] = assay: Cellular uptake and efflux of DEVD peptides 2 and 3, fluorescence analysis; format: cell-based, human
Procedure: Cellular uptake and efflux of DEVD peptides 2 and 3—fluorescence analysis DLD1 cells were seeded (1×10^4/well) in a 96-well plate 1 day before experiments. The DLD1 cells were sequentially treated with 100 μL of the following agents at 37° C.: (A) 25 μM each DEVD conjugate for 2 h; (B) 25 μM each DEVD conjugate for 2 h followed by TRAIL (150 ng/L) for 2 h; (C) 25 μM each DEVD conjugate for 2 h, drug-free culture medium for 2 h, and TRAIL (150 ng/L) for 2 h; and (D) 25 μM each DEVD conjugate for 2 h, drug-free culture medium for 24 h, and TRAIL (150 ng/L) for 2 h. The cells were washed with PBS twice before each medium replacement. After treatment, the cells were lysed with 100 μL of lysis buffer (Sigma) for […] at room temperature. The fluorescence intensity of cleaved R110 was measured using a TECAN microplate reader (San Jose, Calif.). The measurement parameters were as follows: excitation wavelength, 485 nm; emission wavelength, 520 nm; excitation and emission bandwidth, both 12.0 nm; gain, 50; number of flashes, 10; and integration time, 30 μs. The measurements were performed 4 times each.
Uptake and release kinetics of DEVD peptides in normal and apoptotic cells. DLD-1 cells were seeded (1×10^4/well) in 96 well plate 1 days before experiment. […] The fluorescent intensity of cleaved R110 was measured using TECAN microplate reader (San Jose, Calif.). […]

DLD1 cells [6] = assay: Fluorescence microscopy of viable and TRAIL-treated apoptotic DLD1 cells; format: cell-based, human; settings: for Effect on apoptosis of DLD1 cells (annexin V staining): annexin V-Alexa Fluor 594 staining
Procedure: Fluorescence Microscopy Human epithelial cells from colorectal adenocarcinoma (DLD1) were seeded (1×10^4/well) in a 96-well plate 1 day before experiments. Apoptosis was induced by treating cells with TRAIL (100 μL, 250 ng/mL) for 2 h at 37° C. Both apoptotic and viable cells were incubated with 100 μL of 2 or 3 in (final concentration, 50 μM) for 2 h at 37° C. The cells were washed and stained with Annexin V-Alexa Fluor 594. After washing with PBS, the cells were transferred into Lab-Tek II chambered cover glass and visualized under Olympus Fluoview FV1000 confocal laser scanning microscope (FV1-ASW, Olympus, Melville, N.Y.) equipped with fluorescein isothiocyanate (wavelength: 495/519 nm) and Texas red filters (wavelength: 589/615 nm). In separate wells, TRAIL was added in the presence of 50 μM of Ac-DEVD-CHO to inhibit caspase 3 activity.
Fluorescence microscopy Human epithelial cells from colorectal adenocarcinoma (DLD1) were obtained from American Type Cell Culture (Manassas, Va.). Cells were seeded (1×10^4/well) in a 96-well plate (Corning, Lowell, Mass.) supplemented with RPMI-1640 medium plus 10% fetal bovine serum (FBS) 1 day before experiments. Apoptosis was induced by treating cells with TRAIL (100 μL, 250 ng/mL) for 2 h at 37° C. The treated apoptotic cells were collected in conical tubes, while the untreated viable cells were trypsinized. The cells were centrifuged at 3000 rpm for 5 mM. The pellets were washed with RPMI 1640 without phenol red. Both apoptotic and viable cells were incubated with 100 μL, of 2 or 3 in RPMI 1640 without phenol red (final concentration, 50 μM) for 2 h at 37° C. The cells were washed and resuspended in annexin-binding buffer (10 mM HEPES, 140 mM NaCl, and 2.5 mM CaCl2 [pH 7.4]). Five microliters of Alexa Fluor 594-annexin V conjugate was added into each 100 μl of cell suspension, and the cells were incubated for 15 min at room temperature. […]

Molecule: Ac-DEVD-R110-D-SAAC-^99mTc(CO)3 [^99mTc-chelate 4]
- Transchelation under cysteine/histidine challenge [1]: No transchelation was observed
- Cleavage of fluorogenic probe in liver sections [2]: shown only in the apoptotic liver but not in the normal liver
- Liver uptake, anti-Fas-treated vs PBS-treated mice (radionuclide imaging) (apoptotic liver): Significantly higher uptake
- Uptake in DLD1 cells (cell pellet to medium activity ratio) (DLD1 cells [3]; 1-2 h of incubation, compared with fragment): accumulated significantly more in the cells than its fragment did; also recorded: significantly higher uptake in DLD1 cells
- Efflux / retention in DLD1 cells after wash (DLD1 cells [3]; 2 h loading, fresh medium 60-180 min): washed out of the cells over time; also recorded: gradually washed out

Molecule: CC(=O)Oc1ccc2c(c1)Oc1cc(OC(C)=O)ccc1C21OC(=O)c2ccccc21 [fluorescein diacetate, reference compound]
- Stability in PBS and culture medium with 10% FBS (generation of fluorescence) [4]: relatively rapid hydrolysis in both solutions

Molecule: Ac-DEVD-R110-D-SAAC-Fmoc [Compound 2]
- Fluorescence change after introduction of caspase 3 (Human caspase 3; 22 μM, over 60 min, λex 496 nm): large increase in fluorescence
- Fluorescence emission without exposure to caspase 3 (Human caspase 3; 22 μM, λex 496 nm, room temperature): near-baseline emission
- Site of hydrolytic cleavage by caspase 3 (LC-MS) (Human caspase 3; 1 h at room temperature): occurred selectively at the amide bond between DEVD and R110
- Degradation on incubation with caspase 3 (Human caspase 3; fluorescence increase and LC-MS): completely degraded
- Uptake in viable tumor cells: reversibility (efflux in drug-free medium 2 or 24 h) (DLD1 cells [5]; 25 μM 2 h, then drug-free medium, then TRAIL): reversible process
- Increase of fluorescence intensity upon TRAIL treatment (DLD1 cells [5]; 25 μM 2 h followed by TRAIL (150 ng/mL) 2 h vs no TRAIL): 27 fold
- Stability in PBS and culture medium with 10% FBS (generation of fluorescence) [4]: stable in both PBS and culture medium supplemented with serum; also recorded: remarkable stability in both PBS and culture medium supplemented with serum

Molecule: Ac-DEVD-CHO
- Effect of caspase 3 inhibitor on fluorescent signal from 3 (DLD1 cells [6]; 50 μM Ac-DEVD-CHO with TRAIL): significantly reduced the fluorescent signal from 3
- Effect on apoptosis of DLD1 cells (annexin V staining) (DLD1 cells [6]): did not inhibit the apoptosis of DLD1 cells

B1: TRAIL: tumor necrosis factor-related apoptosis-inducing ligand, recombinant human (protein, UniProt P50591 1-281, looked up)
Tumor necrosis factor ligand …: MAMMEVQGGPSLGQTCVLIVIFTVLLQSLCVAVTYVYFTNELKQMQDKYSKSGIACFLKEDDSYWDPNDEESMNSPCWQVKWQLRQLVRKMILRTSEETISTVQEKQQNISPLVRERGPQRVAAHITGTRGRSNTLSSPNSKNEKALGRKINSWESSRSGHSFLSNLHLRNGELVIHEKGFYYIYSQTYFRFQEEIKENTKNDKQMVQYIYKYTSYPDPILLMKSARNSCWSKDAEYGLYSIYQGGIFELKENDRIFVSVTNEHLIDMDHEASFFGAFLVG
- Effect on apoptosis of DLD1 cells (annexin V staining) (DLD1 cells [6]): induced significant apoptosis
